Source: ChEMBL document CHEMBL3046770, “1-(6-Chloronicotinyl)-2-nitroimino-imidazolidines and Related Compounds as Potential New Insecticides” (Biosci Biotechnol Biochem, 1992)
≈ marks a conversion by molar mass, not a printed value. Calls of active or inactive are those of the source. No cut-off for these calls is given here.

System: Nephotettix cincticeps
Assay: Insecticidal activity against Nephotettix cincticeps (green rice leafhopper) infested on rice leaf assessed as increase in mortality at 1000 ppm after 5 days
Assay type: functional, organism-based
Conditions: not given
With `N#C/C=C1\NCCN1Cc1ccc(Cl)nc1` the Activity was “inactive”. In the case of `CCOC(=O)/C=C1\NCCN1Cc1ccc(Cl)nc1`, the Activity is reported as “inactive”.

System: Lepidoptera
Assay: Insecticidal activity against Lepidoptera
Assay type: functional, organism-based
Conditions: not given
For `O=[N+]([O-])/N=C1\NCCN1Cc1ccc(Cl)nc1` [IMIDACLOPRID], the Activity was “inactive”.

System: not listed separately
Assay: Toxicity in po dosed Rattus norvegicus (rat)
Assay type: organism-based
Conditions: in vivo
In the case of `O=[N+]([O-])NC1=NCCN1Cc1ccc(Cl)nc1` [IMIDACLOPRID], the LD50 is reported as 450 mg/kg.

System: not listed separately
Assay: Toxicity in Rattus norvegicus (rat) […]
Assay type: organism-based
Conditions: in vivo
In the case of `O=[N+]([O-])NC1=NCCN1Cc1ccc(Cl)nc1` [IMIDACLOPRID], the LD50 is reported as > 5000 mg/kg.

System: not listed separately
Assay: Toxicity in Leuciscus idus (golden orfe) after 96 hr
Assay type: organism-based
Conditions: in vivo
With `O=[N+]([O-])NC1=NCCN1Cc1ccc(Cl)nc1` [IMIDACLOPRID] the LC50 at 96 h was 237 µg/mL (≈ 927 µM).

System: Nephotettix cincticeps
Assay: Insecticidal activity against Nephotettix cincticeps (green rice leafhopper) infested on rice leaf assessed as mortality after 5 days
Assay type: functional
Conditions: not given
For `O=[N+]([O-])/C=C1\NCCN1Cc1ccc(Cl)nc1`, the LC90 was 0.32 ppm. Molecule `N=C1NCCN1Cc1ccc(Cl)nc1` [DESNITROIMIDACLOPRID] has an LC90 of 200 ppm. For `CCN1CCN(Cc2ccc(Cl)nc2)/C1=N/[N+](=O)[O-]`, the LC90 was 8 ppm. `C#CCN1CCN(Cc2ccc(Cl)nc2)/C1=N/[N+](=O)[O-]` gave an LC90 of 0.32 ppm. `N#CN1CCN(Cc2ccc(Cl)nc2)/C1=N/[N+](=O)[O-]` gave an LC90 of 0.32 ppm. Work on `CC(C)N1CCN(Cc2ccc(Cl)nc2)/C1=N/[N+](=O)[O-]` yielded an LC90 of 40 ppm. Work on `CCCCCN1CCN(Cc2ccc(Cl)nc2)/C1=N/[N+](=O)[O-]` yielded an LC90 of 40 ppm. Molecule `CCCCN1CCN(Cc2ccc(Cl)nc2)/C1=N/[N+](=O)[O-]` has an LC90 of 1.6 ppm. For `O=C(c1ccccc1)N1CCN(Cc2ccc(Cl)nc2)/C1=N/[N+](=O)[O-]`, the LC90 was 0.32 ppm. For `CCCN1CCN(Cc2ccc(Cl)nc2)/C1=N/[N+](=O)[O-]`, the LC90 was 0.32 ppm. Molecule `O=C1NCCN1Cc1ccc(Cl)nc1` has an LC90 of 1000 ppm. Molecule `C=CCN1CCN(Cc2ccc(Cl)nc2)/C1=N/[N+](=O)[O-]` has an LC90 of 0.32 ppm. `COP(=S)(OC)Oc1ccc([N+](=O)[O-])c(C)c1` [FENITROTHION] showed an LC90 of 200 ppm. With `CN1CCN(Cc2ccc(Cl)nc2)/C1=N/[N+](=O)[O-]` the LC90 was 1.6 ppm. `N#CC(C#N)=C1NCCN1Cc1ccc(Cl)nc1` gave an LC90 of 40 ppm. `O=[N+]([O-])/N=C1\NCCN1Cc1ccc(Cl)nc1` [IMIDACLOPRID] gave an LC90 of 0.32 ppm. In the case of `CC(=O)N1CCN(Cc2ccc(Cl)nc2)/C1=N/[N+](=O)[O-]`, the LC90 is reported as 0.32 ppm.
